Experiments:
Assay in all cases: relative viability (nuclei count vs DMSO), 5 days (fraction); higher = more cells survive
[1] = compound: CS(=O)(=O)c1ccc(-c2cnc(N)c(C(=O)Nc3ccccc3)n2)cc1 [VE-821] + COc1cccc2cc(-c3nc([C@H]4CC[C@H](C(=O)O)CC4)n4ncnc(N)c34)[nH]c12 [OSI-027] (partner 0.5 µM)
Outline: (§1)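 Lung cancer cell lines were pin-tool dosed in 1536-well plates on the day after seeding, with either a lone drug or a fixed anchor-drug dose plus five library-drug doses (not always all listed) in √10 steps. Nuclei were counted on 4× images after 5 days. Relative viability is the ratio of treated-well to vehicle-well nuclei counts, with each value a median of duplicate plates.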

[2] = compound: N#CC[C@H](C1CCCC1)n1cc(-c2ncnc3[nH]ccc23)cn1 [Ruxolitinib] + Cc1nc(NC(=O)N2CCC[C@H]2C(N)=O)sc1-c1ccnc(C(C)(C)C(F)(F)F)c1 [Alpelisib] (partner 2 µM)
Outline: as §1

[3] = compound: N#CC[C@H](C1CCCC1)n1cc(-c2ncnc3[nH]ccc23)cn1 [Ruxolitinib] + Cc1nc(Nc2ncc(C(=O)Nc3c(C)cccc3Cl)s2)cc(N2CCN(CCO)CC2)n1 [Dasatinib] (partner 0.075 µM)
Outline: as §1

[4] = compound: CS(=O)(=O)c1ccc(-c2cnc(N)c(C(=O)Nc3ccccc3)n2)cc1 [VE-821] + CS(=O)(=O)N1CCN(Cc2cc3nc(-c4cccc5[nH]ncc45)nc(N4CCOCC4)c3s2)CC1 [Pictilisib] (partner 1 µM)
Outline: as §1

## UMC-11
[1]; first compound 0.08 µM
  relative viability: 0.507
[1]; first compound 0.253 µM
  relative viability: 0.436
[1]; first compound 0.8 µM
  relative viability: 0.508
[1]; first compound 2.53 µM
  relative viability: 0.477
[1]; first compound 8 µM
  relative viability: 0.325
[2]; first compound 0.08 µM
  relative viability: 0.869
[2]; first compound 0.253 µM
  relative viability: 1.02
[2]; first compound 0.8 µM
  relative viability: 1.06
[2]; first compound 2.53 µM
  relative viability: 1.12
[2]; first compound 8 µM
  relative viability: 0.938
[3]; first compound 0.08 µM
  relative viability: 0.437
[3]; first compound 0.253 µM
  relative viability: 0.492
[3]; first compound 0.8 µM
  relative viability: 0.524
[3]; first compound 2.53 µM
  relative viability: 0.508
[3]; first compound 8 µM
  relative viability: 0.512
[4]; first compound 0.08 µM
  relative viability: 0.933
[4]; first compound 0.253 µM
  relative viability: 0.781
[4]; first compound 0.8 µM
  relative viability: 0.613
[4]; first compound 2.53 µM
  relative viability: 0.84
[4]; first compound 8 µM
  relative viability: 0.4
